The source of these data is patent US7737161B2, “Condensed furan compounds” (Mitsubishi Tanabe Pharma Corporation, priority 2003, dated 2010).

The assay deals with T1, human FXa (Homo sapiens, UniProt P00742).
T1 construct: purchased Enzyme Research Laboratories, Inc
Put plainly: Inhibitory effect on activated blood coagulation factor X (chromogenic substrate S-2222). It is filed as biochemical. To be noted: human FXa 0.05 U/ml, S-2222 0.5 mM, 37° C., pH 8.4. On the procedure:
A substrate solution was prepared by dissolving chromogenic substrate S-2222 at the concentration of 0.625 mM (final concentration 0.5 mM) in 100 mM Tris buffer (pH 8.4) containing 200 mM sodium chloride and 0.1% bovine serum albumin, and a test compound solution was prepared by dissolving a test compound in a buffer containing 10% dimethyl sulfoxide. The test compound solution (25 μl) was added to the substrate solution (200 μl). In the control group, 25 μl of the buffer containing 10% dimethyl sulfoxide was used instead of the test compound solution.
After pre-warming at 37° C. for 3 minutes, 25 μl of human FXa (Enzyme Research Laboratories, Inc.) dissolved at 0.5 U/ml in a buffer was added to the reaction mixture (final concentration of FXa: 0.05 U/ml) to initiate the reaction. During a 5-minute reaction at 37° C., the absorbance at 405 nm was monitored continuously on a 96 well microplate reader (Spectra MAX250, Molecular Devices) and the increase of absorbance was used as an index of FXa activity. In order to evaluate FXa inhibitory activity of a test compound, the 50% inhibitory concentration of the test compound for FXa activity compared to the control group (IC50 value) was calculated using analytic soft (GraphPad Prism, GraphPad Software, Inc.).

T1 sequence (P00742 235-488 limits assumed): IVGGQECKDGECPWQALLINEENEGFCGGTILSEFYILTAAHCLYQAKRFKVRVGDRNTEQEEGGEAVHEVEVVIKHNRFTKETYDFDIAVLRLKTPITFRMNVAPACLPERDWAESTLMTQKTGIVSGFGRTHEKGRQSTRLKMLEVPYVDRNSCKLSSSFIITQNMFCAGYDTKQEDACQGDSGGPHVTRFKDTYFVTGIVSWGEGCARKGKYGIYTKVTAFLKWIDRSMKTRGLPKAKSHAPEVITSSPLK
T1 sequence (P00742 41-179 partner limits assumed): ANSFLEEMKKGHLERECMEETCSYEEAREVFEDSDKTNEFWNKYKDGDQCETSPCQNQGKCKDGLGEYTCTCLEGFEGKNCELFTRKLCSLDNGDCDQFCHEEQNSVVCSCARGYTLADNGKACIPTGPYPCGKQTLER

Usually IC50 stands for the concentration at which inhibition is half-maximal. `COc1ccc2oc(C(=O)Nc3ccc(Cl)cn3)c(NC(=O)[C@H]3CC[C@H](N(C)C)CC3)c2n1` [Example 36] returned an IC50 of 10.8 nM.
